Laboratory results from publication PMC3806803 (PLoS ONE, 2013).

Assays:
[1] = biological target: H3 HA (recombinant) (Influenza A virus (A/Brisbane/10/2007(H3N2)), UniProt A8W8K8)
[2] = biological target: H7 HA (recombinant) (Influenza A virus (A/Netherlands/219/2003(H7N7)), UniProt Q6VMK1)
[3] = biological target: H7 HA (recombinant) (Influenza A virus (A/Netherlands/219/2003(H7N7)), UniProt Q6VMK1); remark: listed apart in the source

CC(C)(C)c1cc(O)ccc1O [TBHQ]
WaterLOGSY and STD NMR; competition with antibody F49 [1]: NMR experiment clearly indicates that TBHQ binds to H3 HA | midpoint pH of proteolysis susceptibility with TBHQ [2]: ~ 4.6 pH | WaterLOGSY and STD NMR; competition with antibody F49 [3]: TBHQ binds to H7 HA and, based on the competition NMR experiment
